The values that follow come from US20260131009A1, “BIFUNCTIONAL PI3K-ALPHA INHIBITORS AND USES THEREOF” (Relay Therapeutics, Inc., priority 2021, published 2026).

For the assay, the target named is PI3Kα (Homo sapiens, UniProt P42336, H1047R). In words: ADP-Glo IC50 assay. Format: biochemical. The note with it: class symbols; key not given.

The structures appear in SMILES notation. pIC50: −log10 of the molar value.

PI3Kα, sequence (P42336 whole entry H1047R): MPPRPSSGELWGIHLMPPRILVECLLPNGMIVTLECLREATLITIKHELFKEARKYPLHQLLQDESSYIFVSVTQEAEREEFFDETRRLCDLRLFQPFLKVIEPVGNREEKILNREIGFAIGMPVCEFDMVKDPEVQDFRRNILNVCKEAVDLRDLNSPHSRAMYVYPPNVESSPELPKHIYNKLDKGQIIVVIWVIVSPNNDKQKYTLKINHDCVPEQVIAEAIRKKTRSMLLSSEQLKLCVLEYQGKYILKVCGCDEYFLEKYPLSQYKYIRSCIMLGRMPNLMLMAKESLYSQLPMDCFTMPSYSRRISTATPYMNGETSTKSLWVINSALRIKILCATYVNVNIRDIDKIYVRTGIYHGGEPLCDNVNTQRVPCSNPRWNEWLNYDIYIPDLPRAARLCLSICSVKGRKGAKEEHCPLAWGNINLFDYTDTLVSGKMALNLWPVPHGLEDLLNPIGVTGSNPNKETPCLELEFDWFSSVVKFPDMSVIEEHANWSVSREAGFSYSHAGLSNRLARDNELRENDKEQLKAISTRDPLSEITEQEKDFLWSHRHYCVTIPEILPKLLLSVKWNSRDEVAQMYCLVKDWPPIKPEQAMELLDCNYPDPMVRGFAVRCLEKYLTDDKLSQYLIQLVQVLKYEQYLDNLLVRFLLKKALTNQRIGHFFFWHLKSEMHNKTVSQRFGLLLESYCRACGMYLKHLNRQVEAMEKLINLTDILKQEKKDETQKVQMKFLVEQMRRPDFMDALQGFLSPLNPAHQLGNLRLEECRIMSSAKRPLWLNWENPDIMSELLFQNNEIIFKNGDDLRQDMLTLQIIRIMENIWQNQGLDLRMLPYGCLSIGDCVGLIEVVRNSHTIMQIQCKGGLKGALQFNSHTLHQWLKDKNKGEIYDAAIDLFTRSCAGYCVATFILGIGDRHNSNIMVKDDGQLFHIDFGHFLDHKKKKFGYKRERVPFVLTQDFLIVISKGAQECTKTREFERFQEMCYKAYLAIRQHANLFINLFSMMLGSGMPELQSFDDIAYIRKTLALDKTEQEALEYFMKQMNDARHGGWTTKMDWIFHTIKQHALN
PI3Kα, sequence (P27986 whole entry partner): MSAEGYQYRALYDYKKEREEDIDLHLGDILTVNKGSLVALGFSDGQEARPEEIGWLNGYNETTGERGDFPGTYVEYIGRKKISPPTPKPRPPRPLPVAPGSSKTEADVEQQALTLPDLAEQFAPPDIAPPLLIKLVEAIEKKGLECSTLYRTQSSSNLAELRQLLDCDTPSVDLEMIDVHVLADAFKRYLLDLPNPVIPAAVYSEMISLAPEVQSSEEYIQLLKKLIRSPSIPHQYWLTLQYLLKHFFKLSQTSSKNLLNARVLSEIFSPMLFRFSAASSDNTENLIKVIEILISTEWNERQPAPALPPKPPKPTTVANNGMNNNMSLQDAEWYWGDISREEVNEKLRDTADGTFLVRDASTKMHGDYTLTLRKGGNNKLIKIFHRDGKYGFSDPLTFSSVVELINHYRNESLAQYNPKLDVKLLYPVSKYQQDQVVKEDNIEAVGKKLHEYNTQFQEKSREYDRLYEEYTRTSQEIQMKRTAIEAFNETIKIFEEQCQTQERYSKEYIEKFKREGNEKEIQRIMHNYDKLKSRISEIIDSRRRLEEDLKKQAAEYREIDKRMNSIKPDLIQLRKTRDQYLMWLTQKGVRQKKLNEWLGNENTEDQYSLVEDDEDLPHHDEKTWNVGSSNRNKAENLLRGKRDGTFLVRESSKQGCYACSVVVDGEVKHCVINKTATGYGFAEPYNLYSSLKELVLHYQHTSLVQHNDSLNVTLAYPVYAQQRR

With `NC(=O)CCCCCCCCCNC(=O)c1cc(NC(=O)c2cc(F)cc(C(F)(F)F)c2)c2c(c1)C(=O)N[C@H]2c1cc(F)ccc1Cl` [Example I-79], the pIC50 (usually −log10 of the IC50, conventionally taken in molar units) was 5.00 to 6.00.

The compound `O=C1CCC(N2Cc3cc(C(=O)NCCCCCCCNC(=O)c4cc(NC(=O)c5cc(F)cc(C(F)(F)F)c5)c5c(c4)C(=O)N[C@@H]5c4cc(F)ccc4Cl)ccc3C2=O)C(=O)N1` (some centres unmarked) [Example I-80] showed a pIC50 of 6.30 to 7.00.

For `Cc1ncsc1-c1ccc([C@H](C)NC(=O)[C@@H]2C[C@@H](O)CN2C(=O)[C@@H](NC(=O)CCCCCCCCCNC(=O)c2cc(NC(=O)c3cc(F)cc(C(F)(F)F)c3)c3c(c2)C(=O)N[C@@H]3c2cc(F)ccc2Cl)C(C)(C)C)cc1` [Example I-81], the pIC50 is 6.30 to 7.00.

As to `NC(=O)CCCCCCCCCNC(=O)c1cc(NC(=O)c2cc(F)cc(C(F)(F)F)c2)c2c(c1)C(=O)N[C@@H]2c1cc(F)ccc1Cl` [Example I-83], the negative logarithm of the IC50 (pIC50) was greater than 7.00.

For `O=C1CCC(N2Cc3cc(C#CCN4CCC(NC(=O)c5cnc(Nc6cc(F)ccc6Cl)c(NC(=O)c6csc7ccccc67)c5)CC4)ccc3C2=O)C(=O)N1` (centres unmarked) [Example I-84], the negative logarithm of the IC50 (pIC50) was 5.00 to 6.00.

As to `O=C1CCC(N2C(=O)c3ccc(NCCCCCNC(=O)c4cc(NC(=O)c5cc(F)cc(C(F)(F)F)c5)c5c(c4)C(=O)N[C@H]5c4cc(F)ccc4Cl)cc3C2=O)C(=O)N1` (some centres unmarked) [Example I-85], the pIC50 was greater than 7.00.

In turn, `O=C(O)CCCCCCCCCNC(=O)c1cc(NC(=O)c2cc(F)cc(C(F)(F)F)c2)c2c(c1)C(=O)N[C@H]2c1cc(F)ccc1Cl` [Example I-86] showed a negative logarithm of the IC50 (pIC50) of 5.00 to 6.00.

For the compound `Cc1ncsc1-c1ccc([C@H](C)NC(=O)[C@@H]2C[C@@H](O)CN2C(=O)[C@@H](NC(=O)CCCCCCCCCNC(=O)c2cc(NC(=O)c3cc(F)cc(C(F)(F)F)c3)c3c(c2)C(=O)N[C@H]3c2cc(F)ccc2Cl)C(C)(C)C)cc1` [Example I-88], the negative logarithm of the IC50 (pIC50) was 6.00 to 6.30.

Compound `O=C1CCC(N2C(=O)c3ccc(NCCCCCCCNC(=O)c4cc(NC(=O)c5cc(F)cc(C(F)(F)F)c5)c5c(c4)C(=O)N[C@@H]5c4cc(F)ccc4Cl)cc3C2=O)C(=O)N1` (some centres unmarked) [Example I-89] showed a pIC50 of 6.00 to 6.30.

The compound `O=C1CCC(N2C(=O)c3ccc(NCCCCCCCNC(=O)c4cc(NC(=O)c5cc(F)cc(C(F)(F)F)c5)c5c(c4)C(=O)N[C@H]5c4cc(F)ccc4Cl)cc3C2=O)C(=O)N1` (some centres unmarked) [Example I-90] had a negative logarithm of the IC50 (pIC50) greater than 7.00.

Take `Cc1cc(Br)c2oc(N3CCN(C(=O)CCOCCOCCNC(=O)c4cnc(Nc5ccccc5C)c(NC(=O)c5csc6ccccc56)c4)CC3)cc(=O)c2c1` [Example I-91]: the pIC50 was 5.00 to 6.00.

`O=C(CCCCCCCNC(=O)c1cc(NC(=O)c2cc(F)cc(C(F)(F)F)c2)c2c(c1)C(=O)N[C@@H]2c1cc(F)ccc1Cl)NCc1ccc2c(c1)CN(C1CCC(=O)NC1=O)C2=O` (some centres unmarked) [Example I-92] gave a pIC50 of 6.00 to 6.30.

`O=C(CCCCCCCNC(=O)c1cc(NC(=O)c2cc(F)cc(C(F)(F)F)c2)c2c(c1)C(=O)N[C@H]2c1cc(F)ccc1Cl)NCc1ccc2c(c1)CN(C1CCC(=O)NC1=O)C2=O` (some centres unmarked) [Example I-93]: the pIC50 was greater than 7.00.

Compound `O=C1CCC(N2C(=O)c3ccc(NCCCCNC(=O)c4cc(NC(=O)c5cc(F)cc(C(F)(F)F)c5)c5c(c4)C(=O)N[C@@H]5c4cc(F)ccc4Cl)cc3C2=O)C(=O)N1` (some centres unmarked) [Example I-94] showed a pIC50 of 6.00 to 6.30.

Take `O=C1CCC(N2Cc3cc(C#CCNC(=O)c4cnc(Nc5cc(F)ccc5Cl)c(NC(=O)c5csc6ccccc56)c4)ccc3C2=O)C(=O)N1` (centres unmarked) [Example I-95]: the pIC50 is greater than 7.00.

The compound `O=C1CCC(N2C(=O)c3ccc(NCCCNC(=O)c4cc(NC(=O)c5cc(F)cc(C(F)(F)F)c5)c5c(c4)C(=O)N[C@@H]5c4cc(F)ccc4Cl)cc3C2=O)C(=O)N1` (some centres unmarked) [Example I-96] had a pIC50 of 6.30 to 7.00.

`O=C1CCC(N2C(=O)c3ccc(NCCCCNC(=O)c4cnc(Nc5cc(F)ccc5Cl)c(NC(=O)c5csc6ccccc56)c4)cc3C2=O)C(=O)N1` (centres unmarked) [Example I-97] had a pIC50 of 6.30 to 7.00.

Regarding `O=C1CCC(N2C(=O)c3ccc(NCCCNC(=O)c4cc(NC(=O)c5cc(F)cc(C(F)(F)F)c5)c5c(c4)C(=O)N[C@H]5c4cc(F)ccc4Cl)cc3C2=O)C(=O)N1` (some centres unmarked) [Example I-98], the negative logarithm of the IC50 (pIC50) was greater than 7.00.

`O=C1CCC(N2C(=O)c3ccc(NCCCNC(=O)c4cnc(Nc5cc(F)ccc5Cl)c(NC(=O)c5csc6ccccc56)c4)cc3C2=O)C(=O)N1` (centres unmarked) [Example I-99] showed a pIC50 of 6.30 to 7.00.

The compound `O=C1CCC(N2C(=O)c3ccc(NCCCCNC(=O)c4cc(NC(=O)c5cc(F)cc(C(F)(F)F)c5)c5c(c4)C(=O)N[C@H]5c4cc(F)ccc4Cl)cc3C2=O)C(=O)N1` (some centres unmarked) [Example I-100] gave a negative-log IC50 (pIC50) greater than 7.00.

On to `Cc1cc(Br)c2oc(N3CCN(C(=O)CCCCCNC(=O)c4cnc(Nc5ccccc5C)c(NC(=O)c5csc6ccccc56)c4)CC3)cc(=O)c2c1` [Example I-101], for which the negative-log IC50 (pIC50) is 6.30 to 7.00.

`O=C1CCC(N2Cc3cc(C#CCNC(=O)c4cc(NC(=O)c5cc(F)cc(C(F)(F)F)c5)c5c(c4)C(=O)N[C@@H]5c4cc(F)ccc4Cl)ccc3C2=O)C(=O)N1` (some centres unmarked) [Example I-102] had a pIC50 greater than 7.00.

On to `NC(=O)CCCCCCCCCNC(=O)c1cc(NC(=O)c2nsc3ccccc23)c2n1CC(=O)N[C@@H]2c1cc(F)ccc1Cl` [Example I-103], for which the negative-log IC50 (pIC50) was greater than 7.00.

In turn, `NC(=O)CCCCCCCCCNC(=O)c1cc(NC(=O)c2nsc3ccccc23)c2n1CC(=O)N[C@H]2c1cc(F)ccc1Cl` [Example I-104] gave a negative-log IC50 (pIC50) greater than 7.00.

`Cc1ncsc1-c1ccc(CNC(=O)[C@@H]2C[C@@H](O)CN2C(=O)[C@@H](NC(=O)CCCCCCCCCNC(=O)c2cc(NC(=O)c3nsc4ccccc34)c3n2CC(=O)N[C@H]3c2cc(F)ccc2Cl)C(C)(C)C)cc1` [Example I-105] gave a pIC50 of 6.00 to 6.30.

As to `O=C1CCC(N2Cc3cc(C(=O)NCCCCCCCCCNC(=O)c4cc(NC(=O)c5nsc6ccccc56)c5n4CC(=O)N[C@@H]5c4cc(F)ccc4Cl)ccc3C2=O)C(=O)N1` (some centres unmarked) [Example I-106], the negative logarithm of the IC50 (pIC50) was greater than 7.00.

For the compound `Cc1ncsc1-c1ccc(CNC(=O)[C@@H]2C[C@@H](O)CN2C(=O)[C@@H](NC(=O)CCCCCCCCCNC(=O)c2cc(NC(=O)c3nsc4ccccc34)c3n2CC(=O)N[C@@H]3c2cc(F)ccc2Cl)C(C)(C)C)cc1` [Example I-107], the pIC50 is greater than 7.00.

`Cc1cc(Br)c2oc(N3CCN(C(=O)CCCCCCNC(=O)c4cnc(Nc5ccccc5C)c(NC(=O)c5csc6ccccc56)c4)CC3)cc(=O)c2c1` [Example I-108] showed a pIC50 of 6.30 to 7.00.

`Cc1ccccc1Nc1ncc(C(=O)N[C@H](CCC(=O)N[C@H](C(=O)N2C[C@H](O)C[C@H]2C(=O)NCc2ccc(-c3scnc3C)cc2)C(C)(C)C)C(O)O)cc1NC(=O)c1csc2ccccc12` [Example I-109]: the negative-log IC50 (pIC50) was 5.00 to 6.00.

Compound `O=C1CCC(N2Cc3cc(C#CCNC(=O)c4cc(NC(=O)c5cc(F)cc(C(F)(F)F)c5)c5c(c4)C(=O)N[C@H]5c4cc(F)ccc4Cl)ccc3C2=O)C(=O)N1` (some centres unmarked) [Example I-110] showed a pIC50 greater than 7.00.

In turn, `Cc1cc([C@@H](C)Nc2ccccc2)c2oc(N3CCN(C(=O)CCOCCOCCNC(=O)c4cnc(Nc5ccccc5C)c(NC(=O)c5csc6ccccc56)c4)CC3)cc(=O)c2c1` [Example I-111] gave a negative-log IC50 (pIC50) greater than 7.00.

In the case of `Cc1cc([C@H](C)Nc2ccccc2)c2oc(N3CCN(C(=O)CCOCCOCCNC(=O)c4cnc(Nc5ccccc5C)c(NC(=O)c5csc6ccccc56)c4)CC3)cc(=O)c2c1` [Example I-112], the pIC50 was 5.00 to 6.00.
